# From the supplement of paper PMC10307832
# Columns and labels:
# Assay in all cases: relative viability (nuclei count vs DMSO), 5 days (fraction); higher = more cells survive
# Daporinad + Phenformin = compound: O=C(/C=C/c1cccnc1)NCCCCC1CCN(C(=O)c2ccccc2)CC1 [Daporinad] + N=C(N)NC(=N)NCCc1ccccc1 [Phenformin] (partner 250 µM)
# How it was run: (§1)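 A single step with final 0.05% Triton X-100, 1% formaldehyde and 1 ug/ml Hoechst fixed the cells and stained nuclei 5 days after treatment. Lung cancer cell lines in 1536-well plates had been treated by pin tool the day after seeding with one drug alone or a fixed anchor-drug dose plus five library-drug doses (not always all listed) in √10 steps, and nuclei were counted on 4× images. Relative viability is the ratio of nuclei in treated wells to nuclei in vehicle wells, taken as the median of duplicate plates.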
# R406 + Tozasertib = compound: COc1cc(Nc2ncc(F)c(Nc3ccc4c(n3)NC(=O)C(C)(C)O4)n2)cc(OC)c1OC [R406] + Cc1cc(Nc2cc(N3CCN(C)CC3)nc(Sc3ccc(NC(=O)C4CC4)cc3)n2)n[nH]1 [Tozasertib] (partner 0.1 µM)
# How it was run: as §1
# R406 + Pemetrexed = compound: COc1cc(Nc2ncc(F)c(Nc3ccc4c(n3)NC(=O)C(C)(C)O4)n2)cc(OC)c1OC [R406] + Nc1nc2[nH]cc(CCc3ccc(C(=O)N[C@@H](CCC(=O)O)C(=O)O)cc3)c2c(=O)[nH]1 [Pemetrexed] (partner 0.2 µM)
# How it was run: as §1
# R406 + AZD7762 = compound: COc1cc(Nc2ncc(F)c(Nc3ccc4c(n3)NC(=O)C(C)(C)O4)n2)cc(OC)c1OC [R406] + NC(=O)Nc1cc(-c2cccc(F)c2)sc1C(=O)N[C@H]1CCCNC1 [AZD7762] (partner 0.2 µM)
# How it was run: as §1
Cell Line,relative viability (Daporinad + Phenformin; first compound 0.0005 µM),relative viability (Daporinad + Phenformin; first compound 0.001581 µM),relative viability (Daporinad + Phenformin; first compound 0.005 µM),relative viability (Daporinad + Phenformin; first compound 0.01581 µM),relative viability (R406 + Tozasertib; first compound 0.08 µM),relative viability (R406 + Tozasertib; first compound 0.253 µM),relative viability (R406 + Tozasertib; first compound 0.8 µM),relative viability (R406 + Tozasertib; first compound 2.53 µM),relative viability (R406 + Tozasertib; first compound 8 µM),relative viability (R406 + Pemetrexed; first compound 0.08 µM),relative viability (R406 + Pemetrexed; first compound 0.253 µM),relative viability (R406 + Pemetrexed; first compound 0.8 µM),relative viability (R406 + Pemetrexed; first compound 2.53 µM),relative viability (R406 + Pemetrexed; first compound 8 µM),relative viability (R406 + AZD7762; first compound 0.08 µM),relative viability (R406 + AZD7762; first compound 0.253 µM),relative viability (R406 + AZD7762; first compound 0.8 µM),relative viability (R406 + AZD7762; first compound 2.53 µM),relative viability (R406 + AZD7762; first compound 8 µM)
201T,0.423,0.456,0.499,0.463,1.02,1,0.986,0.939,0.523,0.322,0.359,0.322,0.309,0.294,0.615,0.685,0.664,0.762,0.836
A549,0.216,0.253,0.133,0.156,,,,,,,,,,,,,,,
A-427,0.298,0.356,0.295,0.191,0.254,0.223,0.188,0.185,0.169,0.947,1.01,1.05,0.979,0.787,0.832,0.795,0.86,0.663,0.43
ABC-1,0.257,0.244,0.285,0.285,0.167,0.16,0.162,0.158,0.14,,,,,,0.912,0.769,0.865,0.858,0.669
BEN,0.289,0.237,0.261,0.292,0.522,0.478,0.499,0.569,0.543,0.773,0.879,0.805,0.835,0.438,0.816,0.814,0.796,0.828,0.523
CAL-12T,0.523,0.613,0.296,0.188,0.312,0.366,0.324,0.255,0.194,1.22,1.15,1.17,0.918,1,0.531,0.641,0.695,0.714,0.637
COR-L23,0.422,0.463,0.317,0.194,0.173,0.218,0.164,0.15,0.113,0.2,0.182,0.191,0.183,0.191,,,,,
COR-L 105,0.491,0.485,0.545,0.607,0.344,0.325,0.439,0.237,0.399,1.29,1.22,1.12,1.24,0.841,,,,,
ChaGo-K-1,0.513,0.532,0.434,0.274,0.224,0.203,0.251,0.218,0.164,0.25,0.25,0.248,0.253,0.233,0.799,0.957,0.999,0.873,0.744
EKVX,0.212,0.23,0.251,0.227,0.369,0.45,0.499,0.317,0.273,0.374,0.467,0.395,0.365,0.387,0.679,0.832,0.847,0.647,0.521
EMC-BAC-2,0.57,0.631,0.417,0.298,0.311,0.286,0.305,0.279,0.246,0.421,0.457,0.427,0.499,0.229,1.05,1.26,1.17,1.04,0.391
EPLC-272H,0.265,0.299,0.373,0.368,0.206,0.242,0.403,0.177,0.111,0.359,0.359,0.316,0.231,0.151,0.21,0.252,0.337,0.199,0.15
H3255,0.355,0.341,0.379,0.424,0.673,,0.782,0.604,0.603,0.547,0.588,0.606,0.521,0.49,0.923,0.983,0.823,0.774,0.747
HARA,0.412,0.397,0.426,0.114,0.115,0.127,0.13,0.155,0.123,0.261,0.236,0.246,0.262,0.174,0.272,0.469,0.257,0.306,0.305
HCC-15,0.421,0.617,0.567,0.586,0.437,0.484,0.458,0.483,0.208,0.213,0.223,0.2,0.201,0.144,1.35,1.33,1.38,1.19,0.751
HCC-44,0.255,0.189,0.233,0.182,0.909,0.532,0.963,0.979,0.393,0.585,0.621,0.603,0.601,0.726,0.974,1.01,0.995,1.03,1.18
HCC-78,0.619,,0.839,0.819,0.513,0.432,0.563,0.404,0.417,0.807,0.972,0.962,0.847,0.878,0.571,0.861,0.623,0.619,0.449
HCC-366,0.565,0.584,0.633,0.606,0.101,0.0718,0.133,0.0575,0.0313,0.161,0.17,0.172,0.164,0.132,0.269,0.294,0.368,0.267,0.243
